Measured values as given in ChEMBL document CHEMBL1158734, “Chemical conversion of nocathiacin I to nocathiacin II and a lactone analogue of glycothiohexide alpha” (2005).
Converted amounts (≈) assume the structure as drawn.

Tests used:
Assay type in all cases: functional
Staphylococcus aureus [1] = assay: Antibacterial activity against Staphylococcus aureus A15090
Staphylococcus aureus [2] = assay: Protective activity against Staphylococcus aureus A15090 infected in sc dosed mouse; conditions: read-out: PD50
Enterococcus faecalis = assay: Antibacterial activity against Enterococcus faecalis A20688
Streptococcus pneumoniae = assay: Antibacterial activity against Streptococcus pneumoniae A28272

C=C(NC(=O)c1csc(-c2nc3c(cc2O)-c2nc(cs2)C(=O)N[C@@H]([C@@H](C)O)C(=O)N/C(=C(\C)OC)c2nc(cs2)C(=O)N[C@@H]2c4nc(cs4)C(=O)N[C@@H](COC(=O)c4c5c6c(cccc6n4O)COC(=O)[C@@H](O[C@H]4C[C@](C)(O)[C@H](N(C)C)[C@H](C)O4)[C@H]2OC5)c2nc-3cs2)n1)C(N)=O [MJ347-81F4 A]
MIC (Staphylococcus aureus [1]): 7 ng/mL (≈ 4.87 nM)
ED50 (Staphylococcus aureus [2]): 0.31 mg/kg
MIC (Enterococcus faecalis): 30 ng/mL (≈ 20.9 nM)
MIC (Streptococcus pneumoniae): 2 ng/mL (≈ 1.39 nM)

C=C(NC(=O)c1csc(-c2nc3c(cc2O)-c2nc(cs2)C(=O)N[C@@H]([C@@H](C)O)C(=O)N/C(=C(\C)OC)c2nc(cs2)C(=O)N[C@@H]2c4nc(cs4)C(=O)N[C@@H](COC(=O)c4[nH]c5cccc6c5c4CO[C@@H]2[C@H](O[C@H]2C[C@](C)(O)[C@H](N(C)C)[C@H](C)O2)C(=O)OC6)c2nc-3cs2)n1)C(N)=O [NOCATHIACIN II]
MIC (Staphylococcus aureus [1]): 7 ng/mL (≈ 4.92 nM)
ED50 (Staphylococcus aureus [2]): < 0.62 mg/kg
MIC (Enterococcus faecalis): 150 ng/mL (≈ 106 nM)
MIC (Streptococcus pneumoniae): 0.5 ng/mL (≈ 0.352 nM)

CO/C(C)=C1/NC(=O)[C@H]([C@@H](C)O)NC(=O)c2csc(n2)-c2cc(O)c(-c3nc(C(N)=O)cs3)nc2-c2csc(n2)[C@@H]2COC(=O)c3c4c5c(cccc5n3O)COC(=O)[C@@H](O[C@H]3C[C@](C)(O)[C@H](N(C)C)[C@H](C)O3)[C@@H](OC4)[C@H](NC(=O)c3csc1n3)c1nc(cs1)C(=O)N2 [NOCATHIACIN IV]
MIC (Staphylococcus aureus [1]): 3 ng/mL (≈ 2.19 nM)
ED50 (Staphylococcus aureus [2]): 1.07 mg/kg
MIC (Enterococcus faecalis): 7 ng/mL (≈ 5.12 nM)
MIC (Streptococcus pneumoniae): 1 ng/mL (≈ 0.731 nM)

CO/C(C)=C1/NC(=O)[C@H]([C@@H](C)O)NC(=O)c2csc(n2)-c2cc(O)c(-c3nc(C(N)=O)cs3)nc2-c2csc(n2)[C@@H]2COC(=O)c3[nH]c4cccc5c4c3CO[C@H]([C@H](O[C@H]3C[C@](C)(O)[C@H](N(C)C)[C@H](C)O3)C(=O)OC5)[C@H](NC(=O)c3csc1n3)c1nc(cs1)C(=O)N2 [THIAZOMYCIN C]
MIC (Staphylococcus aureus [1]): 60 ng/mL (≈ 44.4 nM)
ED50 (Staphylococcus aureus [2]): 4.35 mg/kg
MIC (Enterococcus faecalis): 125 ng/mL (≈ 92.4 nM)
MIC (Streptococcus pneumoniae): 30 ng/mL (≈ 22.2 nM)
